{
  "source": "patent US20160324863A1",
  "about": "“TARGETED CANCER TREATMENT BY HSP90 INHIBITORS GANETESPIB AND NVP-AUY922” (SYNTA PHARMACEUTICALS CORP., priority 2014, published 2016)",
  "key": {"[1]": {"test_system": "SW780 bladder cancer cell line", "assay": "CellTiter-Glo viability assay, SW780", "format": "cell-based", "conditions": "72 hours (FIG. 12)", "protocol": "(§1) Cellular viability was assessed using the CellTiter-Glo Luminescent Cell Viability Assay (Promega) according to manufacturer protocols. Bladder cancer cell lines were seeded into 96-well plates based on optimal growth rates determined empirically for each line. Twenty-four hours after plating, cells were dosed with graded concentrations of ganetespib for 72 hours. CellTiter-Glo was added (50% v/v) to the cells, and the plates incubated for 10 minutes prior to luminescent detection in a SpectraMax Plus 384 microplate reader (Molecular Devices). Data were normalized to percent of control and IC50 values used to determine the sensitivity of each line. For the comparative analyses with ganetespib and BGJ398, RT112 cells were treated with graded concentrations of each compound for 72 hours and cell viability measured as above. For the evaluation of apoptotic induction, caspase activity was assessed using the Caspase-Glo 3/7 assay (Promega) according to manufacturer protocols. Twenty-four hours after plating, RT112 cells were treated with graded concentrations of ganetespib for 24 hours. Caspase-Glo was added to cells (50% v/v) and the plates incubated for 1 hour prior to luminescent detection."}, "[2]": {"test_system": "RT4 bladder cancer cell line", "assay": "CellTiter-Glo viability assay, RT4", "format": "cell-based", "conditions": "72 hours (FIG. 8), read-out: IC50 values", "protocol": "as §1"}, "[3]": {"test_system": "RT112 xenografts", "assay": "RT112 xenograft tumor model", "format": "in vivo", "conditions": "BGJ398 10 mg/kg p.o. daily, 3 weeks", "protocol": "CD-1 nude mice (Charles River Laboratories, Wilmington, Mass.) at 7-12 weeks of age were maintained in a pathogen-free environment and all in vivo procedures were approved by the Synta Pharmaceuticals Corp. Institutional Animal Care and Use Committee. RT112 cells (5×10^6) were subcutaneously implanted into female mice and animals bearing established tumors (˜150 mm^3) were randomized into treatment groups of 8. Mice were i.v. dosed with ganetespib (150 mg/kg) once weekly or p.o. dosed with BGJ398 (10 mg/kg) daily, either alone or in combination, for 3 weeks. Tumor growth inhibition was monitored by tumor volume measurements twice weekly. As a measurement of in vivo efficacy, the % T/C value was determined from the change in average tumor volumes of each treated group relative to the vehicle treated animals. Statistical significance was determined using two-way ANOVA followed by Bonferroni post tests."}, "[4]": {"test_system": "FGFR3-TAAC3 in RT112 cells", "assay": "Western blotting of FGFR3-TAAC3 and signaling proteins in RT112 cells", "format": "cell-based", "conditions": "100 nM, 24 hours", "protocol": "Following in vitro assays, tumor cells were disrupted in lysis buffer on ice for 10 minutes. Lysates were clarified by centrifugation and equal amounts of proteins resolved by SDS-PAGE before transfer to nitrocellulose membranes (Bio-Rad). Membranes were blocked with StartingBlock T20 blocking buffer (Thermo Scientific) and immunoblotted with the indicated antibodies. Antibody-antigen complexes were visualized using an Odyssey system (LI-COR)."}, "[5]": {"test_system": "RT112 bladder cancer cell line", "assay": "CellTiter-Glo viability assay, RT112", "format": "cell-based", "conditions": "Homo sapiens, RT-112, 72-hour combination viability assay, single inhibitor, read-out: approximate IC50 concentrations", "protocol": "as §1"}},
  "data": [
    {"smiles": "C=CCNC1=C2C[C@@H](C)C[C@H](OC)[C@H](O)[C@@H](C)/C=C(\\C)[C@H](OC(N)=O)[C@@H](OC)/C=C\\C=C(/C)C(=O)NC(=CC1=O)C2=O", "note": "[17-AAG, 17-allylamino-17-demethoxygeldanamycin]", "values": [
      {"measurement": "cytotoxicity / sensitivity of cells (in words)", "setting": "[1]", "result": "acutely sensitive"}
    ]},
    {"smiles": "CO[C@H]1/C=C\\C=C(/C)C(=O)NC2=CC(=O)C(NCCN(C)C)=C(C[C@@H](C)C[C@H](OC)[C@H](O)[C@@H](C)/C=C(\\C)[C@@H]1OC(N)=O)C2=O", "note": "[17-DMAG, 17-dimethylaminoethylamino-17-demethoxygeldanamycin]", "values": [
      {"measurement": "cytotoxicity / sensitivity of cells (in words)", "setting": "[1]", "result": "acutely sensitive"}
    ]},
    {"smiles": "CCNC(=O)c1noc(-c2cc(C(C)C)c(O)cc2O)c1-c1ccc(CN2CCOCC2)cc1", "note": "[AUY922]", "values": [
      {"measurement": "IC50", "setting": "[2]", "result": "> 1000", "unit": "nM"}
    ]},
    {"smiles": "CCN1CCN(c2ccc(Nc3cc(N(C)C(=O)Nc4c(Cl)c(OC)cc(OC)c4Cl)ncn3)cc2)CC1", "note": "[BGJ398, reference compound]", "values": [
      {"measurement": "T/C value", "setting": "[3]", "result": "−20", "unit": "%"},
      {"measurement": "total FGFR3-TAAC3 expression", "setting": "[4]", "result": "did not affect"},
      {"measurement": "IC50", "setting": "[5]", "result": "~5", "unit": "nM"}
    ]}
  ]
}
